In ChEMBL document CHEMBL1139265, “Synthesis and biological evaluation of new glutamic acid-based inhibitors of MurD ligase” (Bioorg Med Chem Lett, 2009) one finds Activity and IC50 data, which are given here for 18 compounds.

Experiment [1] has as its system Escherichia coli. In words: Inhibition of Escherichia coli MurD assessed as residual activity at 500 uM.
Experiment [2] has as its system Escherichia coli. In words: Inhibition of Escherichia coli MurE assessed as residual activity at 250 uM.
Experiment [3] is described as follows: Inhibition of Escherichia coli MurD assessed as residual activity.
The test system of experiment [4] is Escherichia coli. In words: Inhibition of Escherichia coli MurF assessed as residual activity at 250 uM.
The test system of experiment [5] is Escherichia coli. As to the kind of experiment: Inhibition of Escherichia coli MurC assessed as residual activity at 250 uM.
Experiment [6] relates to Escherichia coli. In words: Inhibition of Escherichia coli MurD assessed as residual activity at 250 uM.

As for `O=C(O)CC[C@H](NC(=O)c1ccc(CNc2ccc3[nH]c(=O)[nH]c(=O)c3c2)cc1)C(=O)O`, in the experiment on Escherichia coli [1], the Activity turned out to be 81%.

Regarding `O=C(O)CC[C@@H](NC(=O)c1ccc(CNc2cccc(/C=C3\SC(=S)NC3=O)c2)cc1)C(=O)O`, the Activity with Escherichia coli [2] worked out at 96%; in the experiment with Escherichia coli [4], 79%; in the experiment on Escherichia coli [5], 78%. In addition, in experiment [3], the IC50 was 174 µM.

On to `O=C(O)CC[C@@H](NC(=O)c1ccc(CNc2ccc(/C=C3\SC(=O)NC3=O)cc2)cc1)C(=O)O`, for which the Activity in the experiment with Escherichia coli [6] amounted to 70%.

Take `O=C(O)CC[C@H](NC(=O)c1ccc(CNc2cccc(/C=C3\SC(=O)NC3=O)c2)cc1)C(=O)O`: the Activity with Escherichia coli [6] was 87%.

On to `O=C(O)CC[C@@H](NC(=O)c1ccc(CNc2ccc(/C=C3\SC(=S)NC3=O)cc2)cc1)C(=O)O`, for which, in the experiment with Escherichia coli [6], the Activity turned out to be 74%.

For `COC(=O)CC[C@@H](NC(=O)c1ccc(CNc2ccc3[nH]c(=O)[nH]c(=O)c3c2)cc1)C(=O)OC`, the Activity with Escherichia coli [1] came out at 91%.

With `Nc1nc(N)c2cc(NCc3ccc(C(=O)N[C@@H](CCC(=O)O)C(=O)O)cc3)ccc2n1`, the Activity in the experiment with Escherichia coli [1] was determined as 80%.

As to `O=C(O)CC[C@H](NC(=O)c1ccc(CNc2ccc(/C=C3\SC(=O)NC3=O)cc2)cc1)C(=O)O`, the Activity with Escherichia coli [6] came out at 88%.

On to `Nc1nc(=O)c2nc(CNc3ccc(C(=O)N[C@@H](CCC(=O)O)C(=O)O)cc3)cnc2[nH]1`, for which the Activity in the experiment with Escherichia coli [1] amounted to 95%.

Take `COC(=O)CC[C@H](NC(=O)c1ccc(CNc2ccc3[nH]c(=O)[nH]c(=O)c3c2)cc1)C(=O)OC`: in the experiment on Escherichia coli [1], the Activity was 92%.

Take `COC(=O)CC[C@H](NC(=O)c1ccc(NCc2cnc3[nH]c(N)nc(=O)c3n2)cc1)C(=O)OC`: the Activity with Escherichia coli [1] turned out to be 96%.

Turning to `O=C(O)CC[C@H](NC(=O)c1ccc(CNc2cccc(/C=C3\SC(=S)NC3=O)c2)cc1)C(=O)O`, the Activity stood at 91% in the experiment with Escherichia coli [2], 77% in the experiment with Escherichia coli [4] and 76% in the experiment with Escherichia coli [5]. Further, the IC50 in experiment [3] is 206 µM.

`Nc1nc(N)c2cc(NCc3ccc(C(=O)N[C@H](CCC(=O)O)C(=O)O)cc3)ccc2n1`: in the experiment on Escherichia coli [1], the Activity worked out at 82%.

As to `O=C(O)CC[C@H](NC(=O)c1ccc(CNc2ccc(/C=C3\SC(=S)NC3=O)cc2)cc1)C(=O)O`, the Activity in the experiment on Escherichia coli [6] was 68%.

Turning to `COC(=O)CC[C@H](NC(=O)c1ccc(CNc2ccc3nc(N)nc(N)c3c2)cc1)C(=O)OC`, in the experiment with Escherichia coli [1], the Activity is 81%.

In the case of `O=C(O)CC[C@@H](NC(=O)c1ccc(CNc2cccc(/C=C3\SC(=O)NC3=O)c2)cc1)C(=O)O`, the Activity in the experiment with Escherichia coli [6] was 85%.

Regarding `O=C(O)CC[C@@H](NC(=O)c1ccc(CNc2ccc3[nH]c(=O)[nH]c(=O)c3c2)cc1)C(=O)O`, the Activity with Escherichia coli [1] came to 77%.

For `COC(=O)CC[C@@H](NC(=O)c1ccc(CNc2ccc3nc(N)nc(N)c3c2)cc1)C(=O)OC`, in the experiment with Escherichia coli [1], the Activity turned out to be 87%.

As usually defined, the IC50 is the concentration that gives 50% inhibition.
